Source: article PMC6602958, “Pharmacokinetics of anti-infectious reagents in silkworms” (Scientific Reports, 2019)
In brackets after ≈: the same amount, converted by molar mass. Like-named read-outs stand apart in the source and are kept apart here. One block for each molecule: values may come before it.

Assays:
cytochrome P450 [1] = assay: 7-ethoxycoumarin deethylation activity in silkworm tissue culture (fluorometry); format: in vitro ADME, Bombyx mori (silkworm); details: midgut, fat body, silk gland, Malpighian tubule in organ culture
Experimental: Figure 2 Tissue specificity of 7-ethoxycoumarin deethylation activity in silkworm. (A) The midgut, fat body, silk gland, and Malpighian tubule were extirpated from silkworms and incubated in medium containing 7-ethoxycoumarin at 30 °C. Medium was collected, extracted by acetone, and evaporated. Samples […] in 50 mM NaOAc buffer (pH 6.0) were treated with beta-glucosidase. The amount of 7-hydroxycomarin, a metabolite, was determined by fluorometry. (B) Inhibition of 7-ethoxycoumarin deethylation by cimetidine in the silkworm midgut. Silkworm midgut was incubated in medium containing 7-ethoxycoumarin and cimetidine at 30 °C. Samples were collected, extracted by acetone, and treated with beta-glucosidase. The amount of 7-hydroxycomarin was determined by fluorometry.
Samples for HPLC were dissolved in 50% methanol.

cytochrome P450 [2] = assay: Decay of cytochrome P450 substrates in in vitro culture of the silkworm midgut (HPLC); details: for HPLC peak area of substrate, Sample 1 / HPLC peak area of substrate, Sample 2: midgut culture, raw data of Fig. 3; for HPLC peak area of substrate: silkworm (Bombyx mori)
Experimental: Silkworm midgut was incubated in medium with cytochrome P450 substrates at 30 °C. The samples were collected, extracted by acetone, and evaporated. The amounts of substrates were determined by HPLC analysis.
Silkworms (5th instar, 5 days) were dissected in a buffer (10 mM HEPES/NaOH, 0.9% NaCl, pH 7.9), and isolated organs were incubated with 3 mL TC-100 medium containing 10% fetal bovine serum, 50 µg/ml gentamicin, and substrates for the metabolic reaction. Whole samples (medium and organ) were homogenized and extracted by equal volumes of acetone followed by evaporation. Extracted samples were dissolved in 50 mM NaOAc buffer and treated with beta-glucosidase to measure the fluorescence of metabolized 7-ethoxycoumarin[6]. […] Samples for HPLC were dissolved in 50% methanol. HPLC analysis was performed using a PEGASIL ODS SP column (φ4.5 mm × 250 mm) with isocratic elution at a flow rate of 1 ml/min.

[3] = in vivo, 10 mg/kg; cited from earlier work
in vivo = details: for HPLC peak area in hemolymph: silkworm (Bombyx mori)
Experimental: Antibiotics were injected into silkworm hemolymph and hemolymph was collected by cutting the legs at the indicated time.
Antibiotics dissolved in saline were injected into the hemolymph of 5th instar silkworms using a 1-mL syringe attached to a 27 G needle. Hemolymph was harvested from abdominal appendages by cutting them with scissors at the indicated time-points after administration, and mixed with an equal volume of acetone. Samples were centrifuged at 15,000 rpm for 5 min at 4 °C, and the supernatants were evaporated with a centrifuge evaporator[18]. The dried materials were dissolved in 50% methanol and filtrated through a 0.45-µm filter. […] The amount of antibiotics in the sample was quantified from the peak area of the chromatogram.

[4] = dog, cited from earlier work
[5] = Protein-binding capacity in silkworm hemolymph (filter unit, HPLC); details: silkworm hemolymph
Candida albicans [6] = assay: Silkworm infection model with Candida albicans (ED50); format: in vivo, Bombyx mori (silkworm)
Candida albicans [7] = assay: Antifungal activity (MIC) by micro dilution with or without silkworm hemolymph; format: cell-based
Experimental: Antimicrobial and antifungal activities of each compound were measured by a micro dilution method[19],[20]. To measure protein binding to antifungal activity, silkworm hemolymph was collected by cutting the pseudopodium using scissors, and centrifuged at 3000 rpm for 5 min at 4 °C.

cytochrome P450 [8] = assay: Metabolism of luciferin derivatives in cultured silkworm midgut (P450-Glo, luminometer); format: in vitro ADME, Bombyx mori (silkworm); details: silkworm midgut incubated with luciferin substrate at 30 °C

Compound: CCOc1ccc2ccc(=O)oc2c1 [7-ethoxycoumarin]
Tissue with the highest capacity to metabolize the compound (in words) (cytochrome P450 [1]): the midgut, not the fat body, had the highest capacity to metabolize

Compound: Cn1c(=O)c2c(ncn2C)n(C)c1=O [Caffeine]
HPLC peak area of substrate, Sample 1 (cytochrome P450 [2]; 0 h): 236597 | HPLC peak area of substrate, Sample 2 (cytochrome P450 [2]; 0 h): 235789 | HPLC peak area of substrate, Sample 1 (cytochrome P450 [2]; 1 h): 225184 | HPLC peak area of substrate, Sample 2 (cytochrome P450 [2]; 1 h): 213119 | HPLC peak area of substrate, Sample 1 (cytochrome P450 [2]; 4 h): 220757 | HPLC peak area of substrate, Sample 2 (cytochrome P450 [2]; 4 h): 220302 | HPLC peak area of substrate, Sample 1 (cytochrome P450 [2]; 20 h): 226873 | HPLC peak area of substrate, Sample 2 (cytochrome P450 [2]; 20 h): 222211

Compound: O=C(N[C@H](CO)[C@H](O)c1ccc([N+](=O)[O-])cc1)C(Cl)Cl [Chloramphenicol]
Cltot [3]: 0.24 mL/g/h | Cltot (total body clearance) (in vivo; in vivo): 0.15 mL/g/h | Time-course of the decrease in concentration in hemolymph (in words) (in vivo; in vivo): biphasic | half-life (in vivo; in vivo): 6 h | HPLC peak area in hemolymph (in vivo; in vivo, 0.1 min): 10505876 | HPLC peak area in hemolymph (in vivo; in vivo, 1 min): 8079061 | HPLC peak area in hemolymph (in vivo; in vivo, 5 min): 4188656 | HPLC peak area in hemolymph (in vivo; in vivo, 10 min): 3076056 | HPLC peak area in hemolymph (in vivo; in vivo, 20 min): 2727973 | HPLC peak area in hemolymph (in vivo; in vivo, 30 min): 1928231 | HPLC peak area in hemolymph (in vivo; in vivo, 60 min): 2239912 | HPLC peak area in hemolymph (in vivo; in vivo, 90 min): 1941121 | HPLC peak area in hemolymph (in vivo; in vivo, 120 min): 1803643 | HPLC peak area in hemolymph (in vivo; in vivo, 180 min): 1414738 | HPLC peak area in hemolymph (in vivo; in vivo, 240 min): 1202608

Second part, led by results:

Metabolism in the silkworm midgut (in words) (cytochrome P450 [2]): metabolized in the silkworm midgut | HPLC peak area of substrate (cytochrome P450 [2]; 0 h): 2620000 | HPLC peak area of substrate (cytochrome P450 [2]; 1 h): 2450000 | HPLC peak area of substrate (cytochrome P450 [2]; 4 h): 2250000 | HPLC peak area of substrate (cytochrome P450 [2]; 20 h): 1370000
Compound: O=C(O)Cc1ccccc1Nc1c(Cl)cccc1Cl [Diclofenac]

Cltot (total body clearance) (in vivo; in vivo): 0.02 mL/g/h
Compound: OC(Cn1cncn1)(Cn1cncn1)c1ccc(F)cc1F [Fluconazole]
Vdss ([4]; dose 10 mg/kg): 0.7 mL/g | t1/2 ([4]; dose 10 mg/kg): 13.0 h | Cltot ([4]; in vivo, 10 mg/kg): 0.04 mL/g/h | fraction unbound at 10 min, 10 µM [5]: 0.35 | half-life (in vivo; hemolymph): 12 h | Time-course of the decrease in concentration in hemolymph (in words) (in vivo; in vivo): biphasic | HPLC peak area in hemolymph (in vivo; in vivo, 0.1 min): 4424583 | HPLC peak area in hemolymph (in vivo; in vivo, 1 min): 3714240 | HPLC peak area in hemolymph (in vivo; in vivo, 5 min): 1821531 | HPLC peak area in hemolymph (in vivo; in vivo, 10 min): 2367593 | HPLC peak area in hemolymph (in vivo; in vivo, 20 min): 2257323 | HPLC peak area in hemolymph (in vivo; in vivo, 30 min): 2040721 | HPLC peak area in hemolymph (in vivo; in vivo, 60 min): 1663340 | HPLC peak area in hemolymph (in vivo; in vivo, 105 min): 1575678 | HPLC peak area in hemolymph (in vivo; in vivo, 120 min): 1440231 | HPLC peak area in hemolymph (in vivo; in vivo, 180 min): 1474050 | HPLC peak area in hemolymph (in vivo; in vivo, 240 min): 1455753 | HPLC peak area in hemolymph (in vivo; in vivo, 360 min): 1088734 | Therapeutic effect in the silkworm infection model (in words) (Candida albicans [6]; silkworm infection model): potent therapeutic effects at a low dose | ED50 (Candida albicans [6]; silkworm infection model with Candida albicans): 0.7 mg/kg | MIC (Candida albicans [7]; read-out: MIC with 10% hemolymph (B), with 10% silkworm hemolymph): 3.2 µg/mL (≈ 10.4 µM) | MIC (Candida albicans [7]; without silkworm hemolymph, read-out: MIC without hemolymph (A)): 0.4 µg/mL (≈ 1.31 µM)

Production of luciferin (RFU/organ) (cytochrome P450 [8]): 198,000 RFU/organ
Compound: CC(C)OC(OC(C)C)C1CSC(c2nc3ccc(O)cc3s2)=N1 (centres unmarked) [Luciferin-IPA]
